Test results taken from ChEMBL document CHEMBL3045444, “Synthesis of Stereoisomers of Ipconazole and Their Fungicidal and Plant Growth Inhibitory Activities” (J Pestic Sci, 1997).
In brackets after ≈: the same amount, converted by molar mass.

Columns and labels:
Fusarium fujikuroi [1] = assay: Antifungal activity against Fusarium fujikuroi after 3 days; type: functional, organism-based
Bipolaris oryzae [2] = assay: Antifungal activity against Bipolaris oryzae after 3 days; type: functional, organism-based
Pyricularia oryzae = assay: Antifungal activity against Magnaporthe oryzae after 3 days; type: functional, organism-based
Bipolaris oryzae [3] = assay: Antifungal activity against Bipolaris oryzae infected in fifth-leaf stage of rice plant assessed as control of brown spot disease at 150 ug/ml treated as foliar application after 6 days; type: functional
Bipolaris oryzae [4] = assay: Antifungal activity against Bipolaris oryzae infected in fifth-leaf stage of rice plant assessed as control of brown spot disease at 38 ug/ml treated as foliar application after 6 days; type: functional
Fusarium fujikuroi [5] = assay: Antifungal activity against Fusarium fujikuroi infected in rice plant assessed as control of bakanae disease at 18 ug/ml treated as seed treatment after 2 weeks; type: functional
Fusarium fujikuroi [6] = assay: Antifungal activity against Fusarium fujikuroi infected in rice plant assessed as control of bakanae disease at 75 ug/ml treated as seed treatment after 2 weeks; type: functional
Fusarium fujikuroi [7] = assay: Antifungal activity against Fusarium fujikuroi infected in rice plant assessed as control of bakanae disease at 300 ug/ml treated as seed treatment after 2 weeks; type: functional
Oryza sativa = assay: Growth inhibition of Oryza sativa (rice) assessed as growth rate by measuring first sheath length at 250 ug/ml treated as seed treatment 24 hr before emergence measured after 10 days relative to control; type: organism-based; design: scale not given: the % may be the effect or the level left; conditions: in vivo, 240 h
Bipolaris oryzae [8] = assay: Antifungal activity against Bipolaris oryzae infected in fifth-leaf stage of rice plant assessed as control of brown spot disease at 9 ug/ml treated as foliar application after 6 days; type: functional
[9] = Fusarium fujikuroi, 72 h, read-out: EC50
[10] = Bipolaris oryzae, 72 h, read-out: EC50
[11] = Pyricularia oryzae, 72 h, read-out: EC50

Row | SMILES | EC50 (Fusarium fujikuroi [1]; [9]) | EC50 (Bipolaris oryzae [2]; [10]) | EC50 (Pyricularia oryzae; [11]) | Activity (Bipolaris oryzae [3]) | Activity (Bipolaris oryzae [4]) | Activity (Fusarium fujikuroi [5]) | Activity (Fusarium fujikuroi [6]) | Activity (Fusarium fujikuroi [7]) | Activity (Oryza sativa) | Activity (Bipolaris oryzae [8]) | EC50 (Pyricularia oryzae) | EC50 (Fusarium fujikuroi [1]) | EC50 (Bipolaris oryzae [2])
1 | CC(C)[C@@H]1CC[C@H](Cc2ccc(Cl)cc2)[C@@]1(O)Cn1cncn1 | 0.03 µg/mL (≈ 0.0899 µM) | 0.2 µg/mL (≈ 0.599 µM) | 0.04 µg/mL (≈ 0.12 µM) |  |  |  |  |  |  |  |  |  | 
2 | CC(C)[C@@H]1CC[C@@H](Cc2ccc(Cl)cc2)[C@@]1(O)Cn1cncn1 (racemic) | 0.9 µg/mL (≈ 2.7 µM) | 1 µg/mL (≈ 3 µM) | 0.5 µg/mL (≈ 1.5 µM) | 92% | 49% | 0% | 59.1% | 95.2% | 91.7% | 25% |  |  | 
3 | CC(C)[C@H]1CC[C@@H](Cc2ccc(Cl)cc2)[C@]1(O)Cn1cncn1 | 10 µg/mL (≈ 30 µM) | 6 µg/mL (≈ 18 µM) | 1 µg/mL (≈ 3 µM) |  |  |  |  |  |  |  |  |  | 
4 | CC(C)[C@H]1CC[C@@H](Cc2ccc(Cl)cc2)[C@@]1(O)Cn1cncn1 (racemic) | 0.09 µg/mL (≈ 0.27 µM) | 0.5 µg/mL (≈ 1.5 µM) | 0.04 µg/mL (≈ 0.12 µM) | 100% | 74% | 9.7% | 76.8% | 97.5% | 82.5% | 53% |  |  | 
5 | CC(C)[C@H]1CC[C@H](Cc2ccc(Cl)cc2)[C@@]1(O)Cn1cncn1 | 0.03 µg/mL (≈ 0.0899 µM) | 0.2 µg/mL (≈ 0.599 µM) |  |  |  |  |  |  |  |  | 0.01 µg/mL (≈ 0.03 µM) |  | 
6 | CC(C)[C@@H]1CC[C@@H](Cc2ccc(Cl)cc2)[C@]1(O)Cn1cncn1 | 6 µg/mL (≈ 18 µM) | 3 µg/mL (≈ 8.99 µM) | 0.7 µg/mL (≈ 2.1 µM) |  |  |  |  |  |  |  |  |  | 
7 | CC(C)[C@H]1CC[C@H](Cc2ccc(Cl)cc2)[C@@]1(O)Cn1cncn1 (racemic) |  |  |  | 100% | 98% | 52.1% | 97.5% | 99.6% | 90.7% | 71% | 0.03 µg/mL (≈ 0.0899 µM) | 0.06 µg/mL (≈ 0.18 µM) | 0.4 µg/mL (≈ 1.2 µM)
8 | CC(C)[C@@H]1CC[C@H](Cc2ccc(Cl)cc2)[C@@]1(O)Cn1cncn1 (racemic) |  |  |  | 100% | 84% | 61.2% | 96.5% | 98.7% | 98.3% | 86% | 0.08 µg/mL (≈ 0.24 µM) | 0.05 µg/mL (≈ 0.15 µM) | 0.4 µg/mL (≈ 1.2 µM)
